Results as given in US11958844B2, “1,3,4-oxadiazole derivative compounds as histone deacetylase 6 inhibitor, and pharmaceutical composition comprising the same” (Chong Kun Dang Pharmaceutical Corp., priority 2018, dated 2024).

biological target: T1, HDAC6 human recombinant (Homo sapiens, UniProt Q9UBN7); assay: HDAC enzyme activity inhibition (in vitro), fluorimetric HDAC6 assay; type: biochemical; conditions: samples at 0.1, 1, 10, 100 and 1000 nM, 37° C. 60 minutes, fluorescence Ex 390, Em 460
T1 sequence (Q9UBN7 1-1215): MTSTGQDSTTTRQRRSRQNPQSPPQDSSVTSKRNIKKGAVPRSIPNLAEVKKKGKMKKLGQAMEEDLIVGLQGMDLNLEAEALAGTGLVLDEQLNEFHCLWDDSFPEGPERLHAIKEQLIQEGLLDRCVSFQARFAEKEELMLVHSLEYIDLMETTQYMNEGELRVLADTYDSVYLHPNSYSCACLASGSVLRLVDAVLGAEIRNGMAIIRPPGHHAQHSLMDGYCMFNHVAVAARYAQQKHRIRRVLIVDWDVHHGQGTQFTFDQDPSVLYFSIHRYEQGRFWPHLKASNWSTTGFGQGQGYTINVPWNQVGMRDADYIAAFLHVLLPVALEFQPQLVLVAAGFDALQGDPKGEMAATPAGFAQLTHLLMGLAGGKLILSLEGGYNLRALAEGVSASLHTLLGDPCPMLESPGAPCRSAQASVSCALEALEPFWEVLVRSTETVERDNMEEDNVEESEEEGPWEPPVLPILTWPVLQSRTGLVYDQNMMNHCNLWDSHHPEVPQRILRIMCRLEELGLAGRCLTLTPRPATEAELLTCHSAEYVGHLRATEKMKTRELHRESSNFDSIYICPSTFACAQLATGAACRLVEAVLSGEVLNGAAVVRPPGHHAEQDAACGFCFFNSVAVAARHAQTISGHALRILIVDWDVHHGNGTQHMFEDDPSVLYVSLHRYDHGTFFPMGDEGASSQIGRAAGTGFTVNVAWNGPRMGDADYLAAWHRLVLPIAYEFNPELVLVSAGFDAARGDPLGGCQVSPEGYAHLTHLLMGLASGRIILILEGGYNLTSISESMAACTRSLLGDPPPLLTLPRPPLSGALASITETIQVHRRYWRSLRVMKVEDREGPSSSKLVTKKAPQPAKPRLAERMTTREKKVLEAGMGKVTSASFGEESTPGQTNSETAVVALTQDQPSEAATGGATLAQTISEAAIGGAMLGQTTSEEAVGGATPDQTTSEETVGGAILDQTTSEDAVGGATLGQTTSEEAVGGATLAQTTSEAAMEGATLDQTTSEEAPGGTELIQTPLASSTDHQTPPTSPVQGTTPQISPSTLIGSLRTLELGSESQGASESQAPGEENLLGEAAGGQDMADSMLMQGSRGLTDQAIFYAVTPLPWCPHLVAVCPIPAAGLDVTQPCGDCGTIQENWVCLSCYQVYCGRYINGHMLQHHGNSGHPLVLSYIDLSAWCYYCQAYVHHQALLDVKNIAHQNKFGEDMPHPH
Protocol: To identify this, HDAC1/6 enzyme selectivity and cell selectivity (HDAC1: histone acetylation/HDAC6: tubulin acetylation) were investigated accordingly.
An HDAC enzyme inhibitory ability of a test material was measured by means of HDAC1 Fluorimetric Drug Discovery Assay Kit (Enzolifesciences: BML-AK511) and HDAC6 human recombinant (Calbiochem: 382180). For an HDAC1 assay, samples were treated at a concentration of 100, 1000 and 10000 nM. For an HDAC6 assay, samples were treated at a concentration of 0.1, 1, 10, 100 and 1000 nM. After such sample treatment, a reaction was continued at 37° C. for 60 minutes, then treated with a developer, and then subjected to reaction at 37° C. for 30 minutes, after which fluorescence intensity (Ex 390, Em 460) was measured by means of FlexStation3 (Molecular device).

IC50 | SMILES
1590 nM | CCn1ccc(-c2nnc(C(F)(F)F)o2)cc1=O [Compound 49, 1-ethyl-4-(5-(trifluoromethyl)-1,3,4-oxadiazole-2-yl)pyridine-2(1H)-one]
663 nM | CC(C)=CCn1ccc(-c2nnc(C(F)F)o2)cc1=O [Compound 54, 4-(5-(difluoromethyl)-1,3,4-oxadiazole-2-yl)-1-(3-methylbut-2-en-1-yl)pyridine-2(1H)-one]
74 nM | O=C(Cn1ccc(-c2nnc(C(F)F)o2)cc1=O)OCc1ccccc1 [Compound 15, benzyl 2-(4-(5-(difluoromethyl)-1,3,4-oxadiazole-2-yl)-2-oxopyridine-1(2H)-yl)acetate]
427 nM | COc1cccc(C(=O)Cn2ccc(-c3nnc(C(F)F)o3)cc2=O)c1 [Compound 22, 4-(5-(difluoromethyl)-1,3,4-oxadiazole-2-yl)-1-(2-(3-methoxyphenyl)-2-oxoethyl)pyridine-2(1H)-one]
257 nM | COc1ccc(C(=O)Cn2ccc(-c3nnc(C(F)F)o3)cc2=O)c(OC)c1 [Compound 20, 4-(5-(difluoromethyl)-1,3,4-oxadiazole-2-yl)-1-(2-(2,4-dimethoxyphenyl)-2-oxoethyl) pyridine-2(1H)-one]
284 nM | O=C(Cn1ccc(-c2nnc(C(F)F)o2)cc1=O)c1coc2ccccc12 [Compound 51, 1-(2-(benzofuran-3-yl)-2-oxoethyl)-4-(5-(difluoromethyl)-1,3,4-oxadiazole-2-yl)pyridine-2(1H)-one]
253 nM | COc1cc(CCn2ccc(-c3nnc(C(F)F)o3)cc2=O)cc(OC)c1 [Compound 8, 4-(5-(difluoromethyl)-1,3,4-oxadiazole-2-yl)-1-(3,5-dimethoxyphenethyl)pyridine-2(1H)-one]
1670 nM | CC(C)=CCn1ccc(-c2nnc(C(F)(F)F)o2)cc1=O [Compound 48, 1-(3-methylbut-2-en-1-yl)-4-(5-(trifluoromethyl)-1,3,4-oxadiazole-2-yl)pyridine-2(1H)-one]
351 nM | O=C(Cn1ccc(-c2nnc(C(F)F)o2)cc1=O)c1ccc(Cl)cc1 [Compound 19, 1-(2-(4-chlorophenyl)-2-oxoethyl)-4-(5-(difluoromethyl)-1,3,4-oxadiazole-2-yl)pyridine-2(1H)-one]
598 nM | Cc1cc(C(=O)Cn2ccc(-c3nnc(C(F)F)o3)cc2=O)c(F)cc1Cl [Compound 23, 1-(2-(4-chloro-2-fluoro-5-methylphenyl)-2-oxoethyl)-4-(5-(difluoromethyl)-1,3,4-oxadiazole-2-yl)pyridine-2(1H)-one]
2250 nM | CCN(CC)CCn1ccc(-c2nnc(C(F)F)o2)cc1=O [Compound 11, 1-(2-(diethylamino)ethyl)-4-(5-(difluoromethyl)-1,3,4-oxadiazole-2-yl)pyridine-2(1H)one]
377 nM | C=C(C)Cn1ccc(-c2nnc(C(F)F)o2)cc1=O [Compound 52, 4-(5-(difluoromethyl)-1,3,4-oxadiazole-2-yl)-1-(2-methylallyl)pyridine-2(1H)-one]
284 nM | CCn1ccc(-c2nnc(C(F)F)o2)cc1=O [Compound 55, 4-(5-(difluoromethyl)-1,3,4-oxadiazole-2-yl)-1-ethylpyridine-2(1H)-one]
631 nM | O=c1cc(-c2nnc(C(F)F)o2)ccn1Cc1ccccc1Cl [Compound 12, 1-(2-chlorobenzyl)-4-(5-(difluoromethyl)-1,3,4-oxadiazole-2-yl)pyridine-2(1H)-one]
217 nM | O=c1cc(-c2nnc(C(F)F)o2)ccn1Cc1cc(F)ccc1F [Compound 10, 1-(2,5-difluorobenzyl)-4-(5-(difluoromethyl)-1,3,4-oxadiazole-2-yl)pyridine-2(1H)-one]
358 nM | O=C(N[C@@H](Cn1ccc(-c2nnc(C(F)F)o2)cc1=O)c1ccccc1)N1CCS(=O)(=O)CC1 [Compound 58, (R)—N-(2-(4-(5-(difluoromethyl)-1,3,4-oxadiazole-2-yl)-2-oxopyridine-1(2H)-yl)-1-phenylethyl)thiomorpholine-4-carboxamide 1,1-dioxide]
2320 nM | O=C(Cn1ccc(-c2nnc(C(F)(F)F)o2)cc1=O)c1ccc(Cl)cc1 [Compound 34, 1-(2-(4-chlorophenyl)-2-oxoethyl)-4-(5-(trifluoromethyl)-1,3,4-oxadiazole-2-yl)pyridine-2(1H)-one]
239 nM | O=C(Cn1ccc(-c2nnc(C(F)F)o2)cc1=O)c1ccc([N+](=O)[O-])cc1 [Compound 25, 4-(5-(difluoromethyl)-1,3,4-oxadiazole-2-yl)-1-(2-(4-nitrophenyl)-2-oxoethyl)pyridine-2(1H)-one]
1100 nM | O=c1cc(-c2nnc(C(F)(F)F)o2)ccn1Cc1cccc(F)c1 [Compound 31, 1-(3-fluorobenzyl)-4-(5-(trifluoromethyl)-1,3,4-oxadiazole-2-yl)pyridine-2(1H)-one]
82 nM | O=c1cc(-c2nnc(C(F)F)o2)ccn1Cc1ccc2ccccc2c1 [Compound 1, 4-(5-(difluoromethyl)-1,3,4-oxadiazole-2-yl)-1-(naphthalene-2-ylmethyl)pyridine-2(1H)-one]
1270 nM | O=c1cc(-c2nnc(C(F)(F)F)o2)ccn1Cc1cc(F)ccc1F [Compound 33, 1-(2,5-difluorobenzyl)-4-(5-(trifluoromethyl)-1,3,4-oxadiazole-2-yl)pyridine-2(1H)-one]
